± gives the standard deviation of the averaged measurements.
Tests used:
Experiment in all cases: normalised growth rate inhibition (GR value) relative to DMSO control (GR (1 = untreated growth, 0 = cytostasis, <0 = cytotoxic)); higher = less growth inhibition
Conditions in all cases: 72 h
MDAMB231 = test system: MDAMB231
Method: (§1)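 Breast cancer cell lines (BT-20, Hs 578T, MCF 10A, MCF7, MDA-MB-231, SK-BR-3) were plated in 384-well plates and treated 24 h later with drugs at six concentrations (0.04-10 µM). Viable cells were counted by Hoechst/dead-cell-stain imaging at 0 and 72 h. Counts were normalised to DMSO controls on the same plate to give the relative cell count and the growth-rate inhibition (GR) value; technical plate triplicates were averaged for each biological replicate.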

MCF10A = test system: MCF10A
Method: as §1

SKBR3 = test system: SKBR3
Method: as §1

HS578T = test system: HS578T
Method: as §1

MCF7 = test system: MCF7
Method: as §1

BT20 = test system: BT20
Method: as §1

CN1CCN(CCOc2cc(OC3CCOCC3)c3c(Nc4c(Cl)ccc5c4OCO5)ncnc3c2)CC1 [saracatinib]
normalised growth rate inhibition (MDAMB231; 0.04 µM): 0.862 ± 0.075 | normalised growth rate inhibition (MDAMB231; 0.12 µM): 0.704 ± 0.086 | normalised growth rate inhibition (MDAMB231; 0.37 µM): 0.587 ± 0.065 | normalised growth rate inhibition (MDAMB231; 1.11 µM): 0.51 ± 0.09 | normalised growth rate inhibition (MDAMB231; 3.33 µM): 0.489 ± 0.12 | normalised growth rate inhibition (MDAMB231; 10 µM): 0.348 ± 0.11 | normalised growth rate inhibition (MCF10A; 0.04 µM): 1.012 ± 0.0071 | normalised growth rate inhibition (MCF10A; 0.12 µM): 0.9684 ± 0.0069 | normalised growth rate inhibition (MCF10A; 0.37 µM): 0.906 ± 0.045 | normalised growth rate inhibition (MCF10A; 1.11 µM): 0.745 ± 0.12 | normalised growth rate inhibition (MCF10A; 3.33 µM): 0.534 ± 0.14 | normalised growth rate inhibition (MCF10A; 10 µM): 0.108 ± 0.033 | normalised growth rate inhibition (SKBR3; 0.04 µM): 1.15 ± 0.098 | normalised growth rate inhibition (SKBR3; 0.12 µM): 1.12 ± 0.1 | normalised growth rate inhibition (SKBR3; 0.37 µM): 1 ± 0.07 | normalised growth rate inhibition (SKBR3; 1.11 µM): 0.916 ± 0.08 | normalised growth rate inhibition (SKBR3; 3.33 µM): 0.763 ± 0.057 | normalised growth rate inhibition (SKBR3; 10 µM): 0.207 ± 0.11 | normalised growth rate inhibition (HS578T; 0.04 µM): 0.9858 ± 0.0065 | normalised growth rate inhibition (HS578T; 0.12 µM): 0.92 ± 0.039 | normalised growth rate inhibition (HS578T; 0.37 µM): 0.828 ± 0.043 | normalised growth rate inhibition (HS578T; 1.11 µM): 0.697 ± 0.088 | normalised growth rate inhibition (HS578T; 3.33 µM): 0.609 ± 0.089 | normalised growth rate inhibition (HS578T; 10 µM): 0.339 ± 0.092 | normalised growth rate inhibition (MCF7; 0.04 µM): 0.854 ± 0.055 | normalised growth rate inhibition (MCF7; 0.12 µM): 0.661 ± 0.12 | normalised growth rate inhibition (MCF7; 0.37 µM): 0.43 ± 0.2 | normalised growth rate inhibition (MCF7; 1.11 µM): 0.323 ± 0.27 | normalised growth rate inhibition (MCF7; 3.33 µM): 0.228 ± 0.26 | normalised growth rate inhibition (MCF7; 10 µM): 0.266 ± 0.21 | normalised growth rate inhibition (BT20; 0.04 µM): 0.993 ± 0.057 | normalised growth rate inhibition (BT20; 0.12 µM): 0.944 ± 0.024 | normalised growth rate inhibition (BT20; 0.37 µM): 0.877 ± 0.032 | normalised growth rate inhibition (BT20; 1.11 µM): 0.785 ± 0.06 | normalised growth rate inhibition (BT20; 3.33 µM): 0.621 ± 0.11 | normalised growth rate inhibition (BT20; 10 µM): 0.26 ± 0.07

Nc1ccc(-c2ccc3ncc4ccc(=O)n(-c5cccc(C(F)(F)F)c5)c4c3c2)cn1 [torin-2]
normalised growth rate inhibition (MDAMB231; 0.04 µM): 0.225 ± 0.084 | normalised growth rate inhibition (MDAMB231; 0.12 µM): 0.135 ± 0.11 | normalised growth rate inhibition (MDAMB231; 0.37 µM): 0.0529 ± 0.1 | normalised growth rate inhibition (MDAMB231; 1.11 µM): 0.0249 ± 0.13 | normalised growth rate inhibition (MDAMB231; 3.33 µM): -0.112 ± 0.36 | normalised growth rate inhibition (MDAMB231; 10 µM): -0.199 ± 0.18 | normalised growth rate inhibition (MCF10A; 0.04 µM): 0.169 ± 0.23 | normalised growth rate inhibition (MCF10A; 0.12 µM): 0.111 ± 0.1 | normalised growth rate inhibition (MCF10A; 0.37 µM): 0.0505 ± 0.063 | normalised growth rate inhibition (MCF10A; 1.11 µM): 0.0367 ± 0.05 | normalised growth rate inhibition (MCF10A; 3.33 µM): 0.0667 ± 0.053 | normalised growth rate inhibition (MCF10A; 10 µM): 0.0215 ± 0.048 | normalised growth rate inhibition (SKBR3; 0.04 µM): -0.135 ± 0.11 | normalised growth rate inhibition (SKBR3; 0.12 µM): -0.132 ± 0.11 | normalised growth rate inhibition (SKBR3; 0.37 µM): -0.158 ± 0.11 | normalised growth rate inhibition (SKBR3; 1.11 µM): -0.168 ± 0.13 | normalised growth rate inhibition (SKBR3; 3.33 µM): -0.21 ± 0.077 | normalised growth rate inhibition (SKBR3; 10 µM): -0.286 ± 0.19 | normalised growth rate inhibition (HS578T; 0.04 µM): 0.192 ± 0.058 | normalised growth rate inhibition (HS578T; 0.12 µM): 0.0992 ± 0.089 | normalised growth rate inhibition (HS578T; 0.37 µM): -0.0345 ± 0.13 | normalised growth rate inhibition (HS578T; 1.11 µM): -0.0453 ± 0.13 | normalised growth rate inhibition (HS578T; 3.33 µM): -0.0773 ± 0.12 | normalised growth rate inhibition (HS578T; 10 µM): -0.135 ± 0.14 | normalised growth rate inhibition (MCF7; 0.04 µM): -0.0044 ± 0.038 | normalised growth rate inhibition (MCF7; 0.12 µM): -0.0152 ± 0.09 | normalised growth rate inhibition (MCF7; 0.37 µM): -0.0495 ± 0.065 | normalised growth rate inhibition (MCF7; 1.11 µM): -0.0476 ± 0.037 | normalised growth rate inhibition (MCF7; 3.33 µM): -0.0446 ± 0.024 | normalised growth rate inhibition (MCF7; 10 µM): -0.111 ± 0.026 | normalised growth rate inhibition (BT20; 0.04 µM): -0.0219 ± 0.046 | normalised growth rate inhibition (BT20; 0.12 µM): -0.0695 ± 0.021 | normalised growth rate inhibition (BT20; 0.37 µM): -0.128 ± 0.077 | normalised growth rate inhibition (BT20; 1.11 µM): -0.218 ± 0.081 | normalised growth rate inhibition (BT20; 3.33 µM): -0.287 ± 0.077 | normalised growth rate inhibition (BT20; 10 µM): -0.251 ± 0.1

CN(C)C/C=C/C(=O)Nc1cc2c(Nc3ccc(F)c(Cl)c3)ncnc2cc1O[C@H]1CCOC1 [afatinib]
normalised growth rate inhibition (MDAMB231; 0.04 µM): 0.845 ± 0.14 | normalised growth rate inhibition (MDAMB231; 0.12 µM): 0.873 ± 0.047 | normalised growth rate inhibition (MDAMB231; 0.37 µM): 0.755 ± 0.041 | normalised growth rate inhibition (MDAMB231; 1.11 µM): 0.641 ± 0.09 | normalised growth rate inhibition (MDAMB231; 3.33 µM): 0.537 ± 0.043 | normalised growth rate inhibition (MDAMB231; 10 µM): -0.205 ± 0.11 | normalised growth rate inhibition (MCF10A; 0.04 µM): 0.034 ± 0.14 | normalised growth rate inhibition (MCF10A; 0.12 µM): 0.0299 ± 0.097 | normalised growth rate inhibition (MCF10A; 0.37 µM): 0.034 ± 0.07 | normalised growth rate inhibition (MCF10A; 1.11 µM): 0.0532 ± 0.05 | normalised growth rate inhibition (MCF10A; 3.33 µM): 0.058 ± 0.067 | normalised growth rate inhibition (MCF10A; 10 µM): 0.0354 ± 0.032 | normalised growth rate inhibition (SKBR3; 0.04 µM): -0.137 ± 0.2 | normalised growth rate inhibition (SKBR3; 0.12 µM): -0.13 ± 0.17 | normalised growth rate inhibition (SKBR3; 0.37 µM): -0.117 ± 0.16 | normalised growth rate inhibition (SKBR3; 1.11 µM): -0.0678 ± 0.2 | normalised growth rate inhibition (SKBR3; 3.33 µM): -0.0514 ± 0.15 | normalised growth rate inhibition (SKBR3; 10 µM): -0.171 ± 0.11 | normalised growth rate inhibition (HS578T; 0.04 µM): 0.9498 ± 0.0056 | normalised growth rate inhibition (HS578T; 0.12 µM): 0.944 ± 0.032 | normalised growth rate inhibition (HS578T; 0.37 µM): 0.944 ± 0.021 | normalised growth rate inhibition (HS578T; 1.11 µM): 0.899 ± 0.025 | normalised growth rate inhibition (HS578T; 3.33 µM): 0.852 ± 0.059 | normalised growth rate inhibition (HS578T; 10 µM): -0.152 ± 0.04 | normalised growth rate inhibition (MCF7; 0.04 µM): 0.784 ± 0.14 | normalised growth rate inhibition (MCF7; 0.12 µM): 0.81 ± 0.15 | normalised growth rate inhibition (MCF7; 0.37 µM): 0.865 ± 0.079 | normalised growth rate inhibition (MCF7; 1.11 µM): 0.736 ± 0.11 | normalised growth rate inhibition (MCF7; 3.33 µM): 0.603 ± 0.15 | normalised growth rate inhibition (MCF7; 10 µM): -0.239 ± 0.083 | normalised growth rate inhibition (BT20; 0.04 µM): 0.704 ± 0.031 | normalised growth rate inhibition (BT20; 0.12 µM): 0.789 ± 0.017 | normalised growth rate inhibition (BT20; 0.37 µM): 0.814 ± 0.027 | normalised growth rate inhibition (BT20; 1.11 µM): 0.868 ± 0.059 | normalised growth rate inhibition (BT20; 3.33 µM): 0.855 ± 0.035 | normalised growth rate inhibition (BT20; 10 µM): 0.0471 ± 0.25

COC1=C2C[C@@H](C)C[C@H](OC)[C@H](O)[C@@H](C)/C=C(\C)[C@H](OC(N)=O)[C@@H](OC)/C=C\C=C(/C)C(=O)NC(=CC1=O)C2=O [geldanamycin]
normalised growth rate inhibition (MDAMB231; 0.04 µM): 0.443 ± 0.2 | normalised growth rate inhibition (MDAMB231; 0.12 µM): 0.0763 ± 0.097 | normalised growth rate inhibition (MDAMB231; 0.37 µM): 0.0142 ± 0.17 | normalised growth rate inhibition (MDAMB231; 1.11 µM): -0.0565 ± 0.17 | normalised growth rate inhibition (MDAMB231; 3.33 µM): -0.148 ± 0.15 | normalised growth rate inhibition (MDAMB231; 10 µM): -0.284 ± 0.13 | normalised growth rate inhibition (MCF10A; 0.04 µM): 0.111 ± 0.066 | normalised growth rate inhibition (MCF10A; 0.12 µM): -0.0212 ± 0.045 | normalised growth rate inhibition (MCF10A; 0.37 µM): -0.0537 ± 0.053 | normalised growth rate inhibition (MCF10A; 1.11 µM): -0.0551 ± 0.04 | normalised growth rate inhibition (MCF10A; 3.33 µM): -0.0997 ± 0.049 | normalised growth rate inhibition (MCF10A; 10 µM): -0.171 ± 0.06 | normalised growth rate inhibition (SKBR3; 0.04 µM): 0.0174 ± 0.11 | normalised growth rate inhibition (SKBR3; 0.12 µM): -0.0672 ± 0.11 | normalised growth rate inhibition (SKBR3; 0.37 µM): -0.0584 ± 0.085 | normalised growth rate inhibition (SKBR3; 1.11 µM): -0.03 ± 0.059 | normalised growth rate inhibition (SKBR3; 3.33 µM): -0.187 ± 0.11 | normalised growth rate inhibition (SKBR3; 10 µM): -0.441 ± 0.14 | normalised growth rate inhibition (HS578T; 0.04 µM): 0.762 ± 0.073 | normalised growth rate inhibition (HS578T; 0.12 µM): 0.219 ± 0.12 | normalised growth rate inhibition (HS578T; 0.37 µM): 0.143 ± 0.062 | normalised growth rate inhibition (HS578T; 1.11 µM): 0.121 ± 0.071 | normalised growth rate inhibition (HS578T; 3.33 µM): 0.0267 ± 0.14 | normalised growth rate inhibition (HS578T; 10 µM): -0.11 ± 0.17 | normalised growth rate inhibition (MCF7; 0.04 µM): 0.503 ± 0.079 | normalised growth rate inhibition (MCF7; 0.12 µM): 0.134 ± 0.026 | normalised growth rate inhibition (MCF7; 0.37 µM): 0.0361 ± 0.021 | normalised growth rate inhibition (MCF7; 1.11 µM): 0.0592 ± 0.03 | normalised growth rate inhibition (MCF7; 3.33 µM): -0.0316 ± 0.038 | normalised growth rate inhibition (MCF7; 10 µM): -0.3 ± 0.085 | normalised growth rate inhibition (BT20; 0.04 µM): 0.262 ± 0.1 | normalised growth rate inhibition (BT20; 0.12 µM): 0.00984 ± 0.086 | normalised growth rate inhibition (BT20; 0.37 µM): -0.0513 ± 0.1 | normalised growth rate inhibition (BT20; 1.11 µM): -0.0518 ± 0.12 | normalised growth rate inhibition (BT20; 3.33 µM): -0.114 ± 0.12 | normalised growth rate inhibition (BT20; 10 µM): -0.238 ± 0.1
